Measured values taken from patent publication US8187278B2, “Photodynamic cellular and acellular organism eradication utilizing a photosensitive material and benzalkonium chloride” (Advanced Photodynamic Technologies, Inc., priority 1998, dated 2012).
Like-named read-outs stand apart in the source and are kept apart here.

What was measured:
[1] = test system: several species of bacteria; assay: photoeradication using methylene blue mediated PDT and the surfactant benzalkonium chloride (FIG. 2), qualitative colony count; type: cell-based; conditions: diode laser about 664 nm, 100 mw/cm^2, 30 to 40 J/cm^2; methylene blue 0 to 100 μg/ml, benzalkonium chloride 0 to 0.01%; topically applied
Description: One particular treatment protocol according to the present invention utilizes the photosensitive material methylene blue and surfactant benzalkonium chloride. Benzalkonium chloride concentrations from 0.001% to 0.5% have been identified as advantageous in the destruction of certain microorganisms, such as Candida albicans, Escherechia coli, Pseudomonas aeruginosa, Staphylococcus aureus, Klebsellia, Serratia,Haemophilus influenza, and Streptococcus pneumoniae. Reference may be made to FIG. 2, which illustrates a schedule of investigation results. […] The laser used for illumination was a diode laser. Methylene blue concentrations ranged from 0 to 100 μg/ml. Benzalkonium chloride concentrations ranged from 0 to 0.01%. The combined solution was topically applied at the cell site. A light dosage rate was 100 mw/cm^2. Light dosages ranged from 30 to 40 J/cm^2. A qualitative colony count relates particular colony counts to an associated score.

[2] = cited from earlier work
[3] = cited from earlier work; remark: listed apart in the source

Row | Molecule | sensitization of bacteria to killing by laser irradiation [1] | yield of the singlet oxygen generation ([2]; pH 5) | yield of the singlet oxygen generation ([2]; pH 9) | toxic effects on administration in high doses ([3]; humans, orally and intravenously, high doses) | tissue toxicity ([3]; in vivo)
1 | alkyl dimethyl benzylammonium chloride [benzalkonium chloride] | alone neither the surfactant nor the photosensitizing agent sensitized the bacteria to killing by laser irradiation | – | – | – | –
2 | CN(C)c1ccc2nc3ccc(=[N+](C)C)cc-3sc2c1 [methylene blue] | alone neither the surfactant nor the photosensitizing agent sensitized the bacteria to killing by laser irradiation | 0.2 | 0.94 | without any toxic effects | very low tissue toxicity
